Assay results as given in ChEMBL document CHEMBL1743341, “Cytochrome p450 enzymes mechanism based inhibitors: common sub-structures and reactivity” (Curr Drug Metab, 2005).

Legend:
[1] = molecular target: T1, Cytochrome P450 2E1 (Homo sapiens, UniProt P05181); test: Mechanism based inhibition of human cytochrome P450 2E1 measured by chlorzoxazone 6-hydroxylase activity; type: ADME
[2] = molecular target: T2, Cytochrome P450 2C19 (Homo sapiens, UniProt P33261); test: Mechanism based inhibition of human cytochrome P450 2C19 evaluated using Tolbutamide; type: ADME
[3] = molecular target: T3, Cytochrome P450 2C8 (Homo sapiens, UniProt P10632); test: Mechanism based inhibition of human cytochrome P450 2C8 using human liver microsomes; type: ADME, Microsome
T3 sequence (P10632 whole entry): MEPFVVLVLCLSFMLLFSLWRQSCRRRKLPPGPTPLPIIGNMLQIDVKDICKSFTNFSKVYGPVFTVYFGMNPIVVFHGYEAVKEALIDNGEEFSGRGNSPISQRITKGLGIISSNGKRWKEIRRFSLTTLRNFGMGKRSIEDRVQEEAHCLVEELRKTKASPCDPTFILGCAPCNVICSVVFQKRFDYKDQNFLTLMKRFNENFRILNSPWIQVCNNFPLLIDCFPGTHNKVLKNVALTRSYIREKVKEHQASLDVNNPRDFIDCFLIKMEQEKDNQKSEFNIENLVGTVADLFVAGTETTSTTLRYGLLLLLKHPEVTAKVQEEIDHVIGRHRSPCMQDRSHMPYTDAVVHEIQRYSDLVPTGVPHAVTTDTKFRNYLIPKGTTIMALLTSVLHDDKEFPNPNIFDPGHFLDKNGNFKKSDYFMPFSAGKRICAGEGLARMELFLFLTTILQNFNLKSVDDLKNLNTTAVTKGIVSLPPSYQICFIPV

[4] = molecular target: T4, Cytochrome P450 1A2 (Homo sapiens, UniProt P05177); test: Mechanism based inhibition of human cytochrome P450 1A2 measured by phenacetin O-deethylation (POD); type: ADME
T4 sequence (P05177 whole entry): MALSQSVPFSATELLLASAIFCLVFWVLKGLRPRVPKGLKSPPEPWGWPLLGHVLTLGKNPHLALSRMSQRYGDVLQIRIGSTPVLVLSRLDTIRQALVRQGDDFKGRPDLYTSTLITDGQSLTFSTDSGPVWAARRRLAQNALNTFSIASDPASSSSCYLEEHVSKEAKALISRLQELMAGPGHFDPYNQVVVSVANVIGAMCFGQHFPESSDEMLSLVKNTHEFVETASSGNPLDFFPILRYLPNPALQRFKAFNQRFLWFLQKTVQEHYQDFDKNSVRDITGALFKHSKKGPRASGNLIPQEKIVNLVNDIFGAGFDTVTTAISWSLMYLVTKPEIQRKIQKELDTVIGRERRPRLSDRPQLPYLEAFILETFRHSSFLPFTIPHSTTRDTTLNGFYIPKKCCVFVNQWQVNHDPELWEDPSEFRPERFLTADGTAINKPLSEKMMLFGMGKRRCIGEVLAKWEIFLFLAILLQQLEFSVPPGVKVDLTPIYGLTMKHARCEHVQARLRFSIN

[5] = molecular target: T5, Cytochrome P450 2A6 (Homo sapiens, UniProt P11509); test: Mechanism based inhibition of human cytochrome P450 2A6 measured by coumarin 7-hydroxylation; type: ADME
T5 sequence (P11509 whole entry): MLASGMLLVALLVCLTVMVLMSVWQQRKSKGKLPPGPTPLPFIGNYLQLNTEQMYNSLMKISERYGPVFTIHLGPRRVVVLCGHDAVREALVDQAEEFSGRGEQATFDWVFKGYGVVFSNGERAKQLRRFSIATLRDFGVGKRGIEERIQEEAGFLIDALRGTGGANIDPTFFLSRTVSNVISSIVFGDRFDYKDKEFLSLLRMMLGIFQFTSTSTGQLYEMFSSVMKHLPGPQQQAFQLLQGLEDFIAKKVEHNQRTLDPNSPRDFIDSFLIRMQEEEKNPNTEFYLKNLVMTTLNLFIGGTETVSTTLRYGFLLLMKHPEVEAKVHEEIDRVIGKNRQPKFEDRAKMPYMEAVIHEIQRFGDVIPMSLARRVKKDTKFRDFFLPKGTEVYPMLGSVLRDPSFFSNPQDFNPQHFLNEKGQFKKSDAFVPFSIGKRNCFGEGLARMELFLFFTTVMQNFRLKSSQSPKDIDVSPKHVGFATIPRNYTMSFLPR

[6] = molecular target: T3, Cytochrome P450 2C8
Description: (§4) Mechanism based inhibition of human cytochrome P450 2C8 measured by paclitaxel hydroxylation using a recombinant system

[7] = molecular target: T6, Cytochrome P450 2B6 (Homo sapiens, UniProt P20813); test: Mechanism based inhibition of human cytochrome P450 2B6; type: ADME
T6 sequence (P20813 whole entry): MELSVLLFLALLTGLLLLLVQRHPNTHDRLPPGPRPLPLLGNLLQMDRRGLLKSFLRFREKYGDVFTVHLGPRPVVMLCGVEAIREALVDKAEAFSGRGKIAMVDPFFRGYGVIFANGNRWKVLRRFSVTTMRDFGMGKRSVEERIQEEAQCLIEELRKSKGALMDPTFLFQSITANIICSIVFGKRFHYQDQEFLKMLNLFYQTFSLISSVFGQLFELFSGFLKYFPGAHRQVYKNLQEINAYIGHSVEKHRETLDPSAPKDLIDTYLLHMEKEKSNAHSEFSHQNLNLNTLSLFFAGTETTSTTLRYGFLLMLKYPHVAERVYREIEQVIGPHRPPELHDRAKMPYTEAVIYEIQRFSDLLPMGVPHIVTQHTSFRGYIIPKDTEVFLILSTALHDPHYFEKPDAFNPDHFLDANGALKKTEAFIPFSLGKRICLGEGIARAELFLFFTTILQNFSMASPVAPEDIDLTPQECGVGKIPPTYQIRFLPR

[8] = molecular target: T2, Cytochrome P450 2C19; test: Mechanism based inhibition of human cytochrome P450 2C19; type: ADME
[9] = molecular target: T7, Cytochrome P450 2C9 (Homo sapiens, UniProt P11712); test: Mechanism based inhibition of human cytochrome P450 2C9; type: ADME
[10] = molecular target: T8, CYP2D6 (Homo sapiens, UniProt P10635); test: (§1) Mechanism based inhibition of human cytochrome P450 2D6 measured by dextromethorphan O-demethylation using human liver microsomes; type: ADME, Microsome; conditions: human, human liver microsomes, probe dextromethorphan
[11] = molecular target: T9, Cytochrome P450 2D6 (Homo sapiens, UniProt P10635); test: as §1; type: ADME, Microsome
[12] = molecular target: T8, CYP2D6; test: (§2) Mechanism based inhibition of human cytochrome P450 2D6 measured by dextromethorphan O-demethylation using recombinant CYP2D6; type: ADME; conditions: human, recombinant CYP2D6, probe dextromethorphan
[13] = molecular target: T9, Cytochrome P450 2D6; test: as §2; type: ADME
[14] = molecular target: T10, Cytochrome P450 3A4 (Homo sapiens, UniProt P08684); test: Mechanism based inhibition of human cytochrome P450 3A4 measured by 1'-hydroxymidazolam production; type: ADME
[15] = molecular target: T7, Cytochrome P450 2C9; test: Mechanism based inhibition of human cytochrome P450 2C9 measured by Tolbutamide methyl hydroxylation; type: ADME
[16] = molecular target: T10, Cytochrome P450 3A4; test: Mechanism based inhibition of human cytochrome P450 3A4 measured by testosterone 6-beta hydroxylation; type: ADME
[17] = molecular target: T4, Cytochrome P450 1A2; test: Mechanism based inhibition of human cytochrome P450 1A2 measured by 7-ethoxyresorufin O-deethylation (EROD); type: ADME
[18] = molecular target: T3, Cytochrome P450 2C8; remark: listed apart in the source
Description: (§5) Mechanism based inhibition of human cytochrome P450 2C8 measured by paclitaxel hydroxylation using human liver microsomes

[19] = molecular target: T11, CYP2C8 (Homo sapiens, UniProt P10632); test: in vitro; conditions: human liver microsomes, probe paclitaxel
T11 sequence (P10632 whole entry): T3 sequence (P10632 whole entry)
Description: as §5

[20] = molecular target: T11, CYP2C8; test: in vitro; conditions: recombinant CYP2C8, probe paclitaxel
Description: as §4

[21] = molecular target: CYP2E1 (Homo sapiens, UniProt P05181); test: (§3) Mechanism based inhibition of human cytochrome P450 2E1; type: ADME; conditions: human
[22] = molecular target: T1, Cytochrome P450 2E1; test: as §3; type: ADME
[23] = molecular target: T12, Cytochrome P450 2B1 (Rattus norvegicus, UniProt P00176); test: Mechanism based inhibition of rat cytochrome P450 CYP2B1 measured by 7-EFC O-deethylation activity; type: ADME; conditions: rat
T12 sequence (P00176 whole entry): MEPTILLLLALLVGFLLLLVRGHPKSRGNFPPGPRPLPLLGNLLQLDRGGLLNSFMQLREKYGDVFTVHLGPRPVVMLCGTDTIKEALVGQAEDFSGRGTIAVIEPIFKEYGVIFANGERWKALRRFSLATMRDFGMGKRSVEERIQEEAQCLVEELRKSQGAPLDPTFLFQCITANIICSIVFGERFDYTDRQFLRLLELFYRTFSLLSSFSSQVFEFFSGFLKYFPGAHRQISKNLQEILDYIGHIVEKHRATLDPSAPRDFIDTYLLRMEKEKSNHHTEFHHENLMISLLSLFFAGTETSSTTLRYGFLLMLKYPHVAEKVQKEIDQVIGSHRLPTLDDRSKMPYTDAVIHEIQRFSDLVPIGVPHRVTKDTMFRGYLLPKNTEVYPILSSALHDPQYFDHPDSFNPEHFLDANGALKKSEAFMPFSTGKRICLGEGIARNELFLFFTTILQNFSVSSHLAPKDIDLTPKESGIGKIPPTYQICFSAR

[24] = molecular target: T7, Cytochrome P450 2C9; test: Mechanism based inhibition of human cytochrome P450 2C9 measured by 7-EFC O-deethylation; type: ADME
[25] = molecular target: T6, Cytochrome P450 2B6; test: Mechanism based inhibition of human cytochrome P450 2B6 measured by 7-EFC O-deethylation; type: ADME
[26] = molecular target: T10, Cytochrome P450 3A4; test: Mechanism based inhibition of human cytochrome P450 3A4 measured by midazolam 1'-hydroxylation; type: ADME

T7 sequence (P11712 whole entry): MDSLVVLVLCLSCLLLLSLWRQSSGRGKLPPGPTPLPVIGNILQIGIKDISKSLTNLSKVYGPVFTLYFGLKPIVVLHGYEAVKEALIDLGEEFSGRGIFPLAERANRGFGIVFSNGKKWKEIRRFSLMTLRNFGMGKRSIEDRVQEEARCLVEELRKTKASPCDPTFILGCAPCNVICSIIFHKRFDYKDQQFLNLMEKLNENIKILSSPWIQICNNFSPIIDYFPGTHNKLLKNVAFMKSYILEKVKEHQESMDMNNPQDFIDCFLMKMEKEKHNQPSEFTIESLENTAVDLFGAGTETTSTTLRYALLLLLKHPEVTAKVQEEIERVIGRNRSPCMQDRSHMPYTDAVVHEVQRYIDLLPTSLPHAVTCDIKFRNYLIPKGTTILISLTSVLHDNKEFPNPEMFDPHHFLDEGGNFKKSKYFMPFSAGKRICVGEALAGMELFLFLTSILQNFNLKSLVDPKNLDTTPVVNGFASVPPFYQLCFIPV
T10 sequence (P08684 whole entry): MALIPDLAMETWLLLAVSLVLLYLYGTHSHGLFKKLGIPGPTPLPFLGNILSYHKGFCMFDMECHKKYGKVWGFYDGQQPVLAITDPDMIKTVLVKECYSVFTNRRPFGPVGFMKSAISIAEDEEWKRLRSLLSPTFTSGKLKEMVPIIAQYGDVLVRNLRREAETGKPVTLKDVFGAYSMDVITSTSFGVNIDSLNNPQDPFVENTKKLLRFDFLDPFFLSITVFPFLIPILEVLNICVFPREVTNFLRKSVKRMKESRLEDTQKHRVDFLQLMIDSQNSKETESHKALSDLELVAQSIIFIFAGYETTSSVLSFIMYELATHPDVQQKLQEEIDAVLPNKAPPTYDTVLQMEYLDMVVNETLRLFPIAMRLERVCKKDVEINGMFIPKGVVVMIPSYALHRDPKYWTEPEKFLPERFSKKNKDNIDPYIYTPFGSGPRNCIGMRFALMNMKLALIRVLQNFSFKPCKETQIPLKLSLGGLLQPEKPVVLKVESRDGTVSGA
T9 sequence (P10635 whole entry): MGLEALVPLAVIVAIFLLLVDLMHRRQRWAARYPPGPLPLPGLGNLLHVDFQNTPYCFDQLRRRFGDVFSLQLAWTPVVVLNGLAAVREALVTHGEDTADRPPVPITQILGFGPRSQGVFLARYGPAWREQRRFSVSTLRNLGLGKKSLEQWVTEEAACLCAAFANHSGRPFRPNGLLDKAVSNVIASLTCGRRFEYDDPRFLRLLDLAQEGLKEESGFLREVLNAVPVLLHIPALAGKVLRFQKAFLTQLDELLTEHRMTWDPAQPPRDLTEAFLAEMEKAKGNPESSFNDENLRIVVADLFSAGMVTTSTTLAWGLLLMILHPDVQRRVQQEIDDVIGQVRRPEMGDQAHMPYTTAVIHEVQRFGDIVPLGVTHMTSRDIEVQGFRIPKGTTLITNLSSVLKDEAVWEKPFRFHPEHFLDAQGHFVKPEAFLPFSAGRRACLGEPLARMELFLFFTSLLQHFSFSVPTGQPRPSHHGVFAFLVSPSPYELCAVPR
T8 sequence (P10635 whole entry): as above
T2 sequence (P33261 whole entry): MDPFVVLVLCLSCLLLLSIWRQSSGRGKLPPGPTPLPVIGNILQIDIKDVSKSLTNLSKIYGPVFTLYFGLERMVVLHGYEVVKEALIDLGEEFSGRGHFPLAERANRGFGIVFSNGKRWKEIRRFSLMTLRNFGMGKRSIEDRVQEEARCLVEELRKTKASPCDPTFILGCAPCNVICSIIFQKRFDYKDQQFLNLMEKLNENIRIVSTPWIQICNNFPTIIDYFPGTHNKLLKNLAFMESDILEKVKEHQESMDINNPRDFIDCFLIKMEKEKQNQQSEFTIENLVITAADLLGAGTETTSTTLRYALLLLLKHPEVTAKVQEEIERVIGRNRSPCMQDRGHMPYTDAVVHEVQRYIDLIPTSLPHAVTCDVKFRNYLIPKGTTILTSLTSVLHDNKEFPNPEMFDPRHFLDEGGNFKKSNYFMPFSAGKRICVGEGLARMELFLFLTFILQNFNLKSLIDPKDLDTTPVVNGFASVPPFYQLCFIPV
T1 sequence (P05181 whole entry): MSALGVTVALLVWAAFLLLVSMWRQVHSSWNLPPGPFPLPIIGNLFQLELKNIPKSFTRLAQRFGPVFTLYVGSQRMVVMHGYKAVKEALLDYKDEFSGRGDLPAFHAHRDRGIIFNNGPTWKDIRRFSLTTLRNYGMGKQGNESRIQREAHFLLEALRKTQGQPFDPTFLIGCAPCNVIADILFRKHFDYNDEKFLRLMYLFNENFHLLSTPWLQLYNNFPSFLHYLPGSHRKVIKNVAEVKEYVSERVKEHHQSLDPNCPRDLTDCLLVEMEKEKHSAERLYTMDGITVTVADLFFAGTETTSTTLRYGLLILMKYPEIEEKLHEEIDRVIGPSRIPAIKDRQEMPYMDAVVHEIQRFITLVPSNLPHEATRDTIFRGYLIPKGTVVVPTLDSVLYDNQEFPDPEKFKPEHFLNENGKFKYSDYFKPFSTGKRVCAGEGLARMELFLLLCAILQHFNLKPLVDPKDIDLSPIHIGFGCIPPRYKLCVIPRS
CYP2E1, sequence (P05181 whole entry): as above

FC(F)(F)C(Cl)Br (configuration not stated) [HALOTHANE]
mechanism based inhibition [1]: Cytochrome P450 mechanistic inhibitor: PMID 8902272

NNC(=O)c1ccncc1 [ISONIAZID]
Ki [2]: 10 µM
Ki [3]: 170 µM
Ki [4]: 56 µM
Ki [5]: 60 µM
Ki [6]: 374 µM

Cn1cc[nH]c1=S [METHIMAZOLE]
mechanism based inhibition [7]: Cytochrome P450 mechanistic inhibitor: PMID 9172960
mechanism based inhibition [8]: Cytochrome P450 mechanistic inhibitor: PMID 9172960
mechanism based inhibition [9]: Cytochrome P450 mechanistic inhibitor: PMID 9172960

CNC(C)Cc1ccc2c(c1)OCO2 (configuration not stated) [MIDOMAFETAMINE]
kinact [10]: 0.00283 s⁻¹
Ki [11]: 22.8 µM
kinact [12]: 0.00483 s⁻¹
Ki [13]: 12.9 µM

CCc1nn(CCCN2CCN(c3cccc(Cl)c3)CC2)c(=O)n1CCOc1ccccc1 [NEFAZODONE]
mechanism based inhibition [14]: Cytochrome P450 mechanistic inhibitor: PMID 15523046

CCOP(=S)(OCC)Oc1ccc([N+](=O)[O-])cc1 [PARATHION]
mechanism based inhibition [15]: Cytochrome P450 mechanistic inhibitor: PMID 9023313
mechanism based inhibition [16]: Cytochrome P450 mechanistic inhibitor: PMID 9023313
mechanism based inhibition [17]: Cytochrome P450 mechanistic inhibitor: PMID 9023313

NNCCc1ccccc1 [PHENELZINE]
Ki [18]: 54.3 µM
Ki [6]: 1.2 µM
kinact [19]: 0.00283 s⁻¹
kinact [20]: 0.00405 s⁻¹

S=C=NCCc1ccccc1 [PHENETHYLISOTHIOCYANATE]
kinact [21]: 0.00565 s⁻¹
Ki [22]: 9.98 µM
mechanism based inhibition [23]: Cytochrome P450 mechanistic inhibitor: PMID 11454729

COc1cc(C2Oc3cc([C@H]4Oc5cc(O)cc(O)c5C(=O)[C@@H]4O)ccc3OC2CO)ccc1O (some centres not stated) [SILIBININ]
Ki [24]: 5 µM

CC/C(=C(\c1ccccc1)c1ccc(OCCN(C)C)cc1)c1ccccc1 [TAMOXIFEN]
Ki [25]: 0.9 µM
mechanism based inhibition [26]: Cytochrome P450 mechanistic inhibitor
